Data: publication PMC7956819, “Peptides from the Intestinal Tract of Breast Milk-Fed Infants Have Antimicrobial and Bifidogenic Activity” (International Journal of Molecular Sciences, 2021)
Peptide text beside a SMILES is read from it.

Experiments:
Format in all cases: cell-based
[1] = system: Bifidobacterium longum spp. infantis ATCC 15697; conditions: ATCC 15697, 18 h
Protocol: (§1) The bioactivity of the intestinal peptide extracts was determined via the microdilution method. Antimicrobial activity was screened with E. coli and S. aureus as representatives of common infant pathogens responsible for infectious disease, and growth-promoting activity was screened with B. infantis, one of the ideal colonizers of the infant gut. For the antimicrobial assays, colonies of bacteria were selected and inoculated in 2 mL of MHB and incubated at 37 °C for 24 h. The inoculum was diluted to 2 × 10^5 CFU/mL with MHB. For the growth-promoting assays, 100 µL of stock bacteria were inoculated in 10 mL of reinforced clostridial broth supplemented with 0.1% ascorbic acid and incubated under anaerobic conditions (BD BBL™ GasPak™) at 37 °C for 24 h. Optical density was measured at 600 nm, and the inoculum was diluted to an optical density of 0.05 with reinforced clostridial broth.
(§2) The intestinal peptide extracts were serially diluted with PBS to concentrations of 1×, 1/2×, 1/4×, 1/8×, 1/16×, 1/32×, 1/64×, and 1/128×. In a 96-well plate, 50 µL of each dilution was incubated with 50 µL of inoculum in duplicate, along with a negative control of 50 µL of inoculum with 50 µL of pure PBS and a sterility test of 50 µL of peptide with 50 µL of broth. Growth was determined by optical density readings at 600 nm (OD600) taken at 0 h (T0) and 18 h (T18). The following equation was used to determine percent inhibition or promotion of bacterial growth:
(§3) Candidate peptides were synthesized and dissolved in sterile nanopure water. Antimicrobial and growth-promoting assays were carried out as described above with serial dilutions ranging from […] to 15.6 μg/mL. Minimum inhibitory concentration (MIC) was determined by the concentration at which all visible growth was inhibited.

[2] = system: Escherichia coli BL21 (DE3); conditions: BL21, 18 h
Protocol: as §1, §2, §3

[3] = system: Staphylococcus aureus ATCC 12600; conditions: ATCC 12600, 18 h
Protocol: as §1, §2, §3

SMILES | B. infantis MIC [1] [µg/mL] | E. coli MIC [2] [µg/mL] | S. aureus MIC [3] [µg/mL]
CC(C)C[C@H](NC(=O)[C@H](CC(=O)O)NC(=O)[C@H](CCCCN)NC(=O)[C@@H](N)Cc1ccccc1)C(=O)NCC(=O)N[C@@H](CCC(=O)O)C(=O)N[C@@H](CCC(=O)O)C(=O)N[C@@H](CC(N)=O)C(=O)N[C@@H](Cc1ccccc1)C(=O)N[C@@H](CCCCN)C(=O)O [Peptide 11] (H-FKDLGEENFK-OH) | >3000 | 3000 | 3000
CC[C@H](C)[C@H](NC(=O)[C@@H]1CCCN1C(=O)[C@H](CC(N)=O)NC(=O)[C@H](Cc1c[nH]cn1)NC(=O)[C@@H](NC(=O)[C@@H]1CCCN1C(=O)[C@H](C)NC(=O)[C@@H](N)CC(C)C)C(C)C)C(=O)O [Peptide 4] (H-LAPVHNPI-OH) | >3000 | 3000 | 3000
CC[C@H](C)[C@H](NC(=O)[C@@H]1CCCN1C(=O)[C@H](CCC(N)=O)NC(=O)[C@@H]1CCCN1C(=O)[C@@H](NC(=O)[C@H](CCC(N)=O)NC(=O)[C@H](CCC(N)=O)NC(=O)[C@H](CCSC)NC(=O)[C@H](CC(C)C)NC(=O)[C@@H]1CCCN1C(=O)[C@H](CCC(N)=O)NC(=O)[C@H](CC(C)C)NC(=O)[C@H](CC(C)C)NC(=O)[C@@H]1CCCN1C(=O)[C@H](CC(C)C)NC(=O)[C@@H]1CCCN1C(=O)[C@H](CC(C)C)NC(=O)[C@@H](N)Cc1c[nH]cn1)C(C)C)C(=O)O [Peptide 1] (H-HLPLPLLQPLMQQVPQPI-OH) | >3000 | >3000 | >3000
CC[C@H](C)[C@H](NC(=O)[C@@H]1CCCN1C(=O)[C@@H](N)CCC(=O)O)C(=O)N1CCC[C@H]1C(=O)N[C@@H](CC(C)C)C(=O)N[C@@H](CCC(=O)O)C(=O)N[C@@H](CO)C(=O)N[C@@H](CCCNC(=N)N)C(=O)N[C@@H](CCC(=O)O)C(=O)N[C@@H](CCC(=O)O)C(=O)O [Peptide 5] (H-EPIPLESREE-OH) | >3000 | 2500 | 2500

Other lines, results leading:

B. infantis MIC [1] [µg/mL] | E. coli MIC [2] [µg/mL] | S. aureus MIC [3] [µg/mL] | SMILES
>3000 | >3000 | >3000 | CC[C@H](C)[C@H](NC(=O)[C@H](CCC(N)=O)NC(=O)[C@@H](N)Cc1c[nH]cn1)C(=O)N[C@@H](Cc1ccc(O)cc1)C(=O)N1CCC[C@H]1C(=O)N[C@H](C(=O)N[C@H](C(=O)N[C@@H](CCC(N)=O)C(=O)N1CCC[C@H]1C(=O)N[C@@H](CC(C)C)C(=O)O)[C@@H](C)O)C(C)C [Peptide 3] (H-HQIYPVTQPL-OH; N-terminus and C-terminus assumed)
>3000 | >3000 | >3000 | CC[C@H](C)[C@H](NC(=O)[C@H](CCC(N)=O)NC(=O)[C@H](C)NC(=O)[C@H](Cc1c[nH]cn1)NC(=O)[C@@H]1CCCN1C(=O)[C@H](CCCNC(=N)N)NC(=O)[C@@H](NC(=O)[C@@H](NC(=O)[C@H](C)NC(=O)[C@@H]1CCCN1C(=O)[C@H](CC(N)=O)NC(=O)[C@H](C)NC(=O)[C@@H](N)Cc1ccc(O)cc1)C(C)C)C(C)C)C(=O)N1CCC[C@H]1C(=O)N[C@@H](CCC(N)=O)C(=O)N[C@@H](CCCNC(=N)N)C(=O)O [Peptide 6] (H-YANPAVVRPHAQIPQR-OH; N-terminus and C-terminus assumed)
>3000 | 3000 | 3000 | CC(C)C[C@H](NC(=O)[C@H](CC(N)=O)NC(=O)[C@@H]1CCCN1C(=O)[C@@H](N)CCCNC(=N)N)C(=O)N[C@@H](Cc1c[nH]cn1)C(=O)N1CCC[C@H]1C(=O)N[C@@H](CO)C(=O)O [Peptide 7] (H-RPNLHPS-OH)
